Tests used:
[1] = target: Acetylcholinesterase (Homo sapiens, UniProt P22303)
Description: Inhibition of human recombinant AChE

[2] = target: Cholinesterase (Homo sapiens, UniProt P06276)
Description: Inhibition of human recombinant BChE

[3] = target: T1, Muscarinic acetylcholine receptor M2 (Homo sapiens) (UniProt P08172); details: Cavia porcellus; Cardiac atrium
T1 sequence (whole entry): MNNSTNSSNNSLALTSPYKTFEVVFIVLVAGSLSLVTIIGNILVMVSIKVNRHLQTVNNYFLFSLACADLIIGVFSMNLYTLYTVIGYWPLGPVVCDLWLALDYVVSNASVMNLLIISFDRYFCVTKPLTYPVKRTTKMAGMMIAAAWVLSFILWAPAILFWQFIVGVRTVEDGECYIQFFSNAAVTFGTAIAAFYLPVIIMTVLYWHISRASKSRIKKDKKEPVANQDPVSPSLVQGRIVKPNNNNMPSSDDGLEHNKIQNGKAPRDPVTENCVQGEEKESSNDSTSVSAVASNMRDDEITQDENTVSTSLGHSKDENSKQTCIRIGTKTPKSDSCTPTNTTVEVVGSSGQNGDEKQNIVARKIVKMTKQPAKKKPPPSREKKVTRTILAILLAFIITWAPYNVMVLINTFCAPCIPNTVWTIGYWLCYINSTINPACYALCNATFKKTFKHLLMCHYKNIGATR
Description: Antagonist activity at muscarinic M2 receptor assessed as contraction of electrically stimulated guinea pig left atrium at 10 uM

Sequence of Acetylcholinesterase (P22303 whole entry): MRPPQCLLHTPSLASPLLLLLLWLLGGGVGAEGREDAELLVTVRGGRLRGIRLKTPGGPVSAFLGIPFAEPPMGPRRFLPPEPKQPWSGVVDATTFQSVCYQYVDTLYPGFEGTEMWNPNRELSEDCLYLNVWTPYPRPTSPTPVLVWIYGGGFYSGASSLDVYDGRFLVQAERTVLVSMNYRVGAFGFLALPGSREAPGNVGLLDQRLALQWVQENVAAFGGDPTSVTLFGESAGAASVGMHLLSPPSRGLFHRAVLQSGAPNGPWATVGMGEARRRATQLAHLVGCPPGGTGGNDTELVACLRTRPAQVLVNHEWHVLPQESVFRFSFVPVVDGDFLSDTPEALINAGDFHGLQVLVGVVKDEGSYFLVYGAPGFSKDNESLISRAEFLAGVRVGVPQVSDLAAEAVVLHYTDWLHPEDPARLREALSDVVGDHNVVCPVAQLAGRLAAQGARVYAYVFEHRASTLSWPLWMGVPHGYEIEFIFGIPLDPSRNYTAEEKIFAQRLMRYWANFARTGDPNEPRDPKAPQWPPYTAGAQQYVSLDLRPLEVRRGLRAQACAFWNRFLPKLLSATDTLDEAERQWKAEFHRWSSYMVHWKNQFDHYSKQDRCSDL
Sequence of Cholinesterase (P06276 whole entry): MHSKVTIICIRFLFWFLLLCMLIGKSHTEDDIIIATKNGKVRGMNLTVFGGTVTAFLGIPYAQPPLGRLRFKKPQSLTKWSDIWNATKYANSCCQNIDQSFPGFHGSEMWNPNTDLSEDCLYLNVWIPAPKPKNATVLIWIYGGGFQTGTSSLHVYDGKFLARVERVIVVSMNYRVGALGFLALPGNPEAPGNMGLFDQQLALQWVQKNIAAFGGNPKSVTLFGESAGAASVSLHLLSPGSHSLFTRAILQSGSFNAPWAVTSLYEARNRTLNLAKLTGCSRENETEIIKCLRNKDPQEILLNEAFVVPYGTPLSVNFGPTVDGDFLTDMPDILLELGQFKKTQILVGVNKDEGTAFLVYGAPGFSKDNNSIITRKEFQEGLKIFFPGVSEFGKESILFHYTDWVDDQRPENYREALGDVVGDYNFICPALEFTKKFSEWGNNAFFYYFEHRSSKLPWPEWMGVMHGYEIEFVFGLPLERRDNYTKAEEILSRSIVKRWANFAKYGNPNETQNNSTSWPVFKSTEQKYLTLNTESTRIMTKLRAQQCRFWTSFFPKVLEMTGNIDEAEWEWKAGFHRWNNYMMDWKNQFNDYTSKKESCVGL

Compound | IC50 [1] [nM] | IC50 [2] [nM] | pKb [3] | Ki [1] [nM]
CC[N+](C)(CCCCCC(=O)Nc1ccc(CCc2ccc(NC(=O)CCCCC[N+](C)(CC)Cc3ccccc3OC)cc2)cc1)Cc1ccccc1OC (stereo not given) | 120 | 1100 | – | –
CCN(CCCCCC(=O)N1CCC(CCCC2CCN(C(=O)CCCCCN(CC)Cc3ccccc3OC)CC2)CC1)Cc1ccccc1OC | 6.61 | 3390 | – | –
CCN(CCCCCCNc1ccc(-c2ccc(NCCCCCCN(CC)Cc3ccccc3OC)cc2)cc1)Cc1ccccc1OC | 2630 | 15500 | – | –
CCN(CCCCCC(=O)Nc1ccc(CCc2ccc(NC(=O)CCCCCN(CC)Cc3ccccc3OC)cc2)cc1)Cc1ccccc1OC | 170 | 1700 | – | –
CCN(CCCCCC(=O)Nc1ccc(-c2ccc(NC(=O)CCCCCN(CC)Cc3ccccc3OC)cc2)cc1)Cc1ccccc1OC | 36.3 | 1860 | – | –
CCN(CCCCCC(=O)N1CCC(CC2CCN(C(=O)CCCCCN(CC)Cc3ccccc3OC)CC2)CC1)Cc1ccccc1OC | 3.31 | 6460 | – | –
CCN(CCCCCC(=O)Nc1ccc(Cc2ccc(NC(=O)CCCCCN(CC)Cc3ccccc3OC)cc2)cc1)Cc1ccccc1OC | 63.1 | 1820 | – | –
CC[N+](C)(CCCCCC(=O)N1CCC(CCCC2CCN(C(=O)CCCCC[N+](C)(CC)Cc3ccccc3OC)CC2)CC1)Cc1ccccc1OC (stereo not given) | 5.75 | 661 | – | –
CCN(CCCCCC(=O)N(C)CCCCCCCCN(C)C(=O)CCCCCN(CC)Cc1ccccc1OC)Cc1ccccc1OC | – | – | 5.65 | –
CC[N+](C)(CCCCCC(=O)N1CCC(CCC2CCN(C(=O)CCCCC[N+](C)(CC)Cc3ccccc3OC)CC2)CC1)Cc1ccccc1OC (stereo not given) | 5.75 | 1860 | – | –
CCN(CCCCCC(=O)N1CCC(C2CCN(C(=O)CCCCCN(CC)Cc3ccccc3OC)CC2)CC1)Cc1ccccc1OC | 3.31 | 8510 | 6.18 | 5.67
CCN(CCCCCC(=O)N1CCC(CCC2CCN(C(=O)CCCCCN(CC)Cc3ccccc3OC)CC2)CC1)Cc1ccccc1OC | 7.41 | 3630 | – | –
CCN(CCCCCCNc1ccc(CCc2ccc(NCCCCCCN(CC)Cc3ccccc3OC)cc2)cc1)Cc1ccccc1OC | 30900 | 95500 | – | –
CCN(CCCCCCNc1ccc(Cc2ccc(NCCCCCCN(CC)Cc3ccccc3OC)cc2)cc1)Cc1ccccc1OC | 1070 | 1620 | – | –
COc1ccccc1CN(C)CCCCCC(=O)N(C)CCCCCCCCN(C)C(=O)CCCCCN(C)Cc1ccccc1OC | – | – | 6.39 | –

From ChEMBL document CHEMBL1149275, “Structure-activity relationships of acetylcholinesterase noncovalent inhibitors based on a polyamine backbone. 3. Effect of replacing the inner polymethylene chain with cyclic moieties” (J Med Chem, 2004)
